Assay results from US4025649A, “Acetic acid derivatives having pharmacological activity and compositions containing the same” (priority 1975, dated 1977).

Assays:
[1] = tested on: pentylenetetrazol-induced seizure; assay: Anticonvulsant activity: pentylenetetrazol-induced seizure; type: in vivo; details: for % of protection: i.p. 15 min before 125 mg/kg pentylenetetrazol i.p., deaths noted at 3 hours, dose mg/kg: A 160, B 175, C 185, F 185, G 175; for duration of anticonvulsant action compared with sodium di-n-propylacetate / anticonvulsant activity compared with sodium di-n-propylacetate: pentylenetetrazol test
Procedure: This test is carried out on mice with a view to determining whether the compounds of this invention, when given preventively by intraperitoneal route, are capable at certain doses of protecting some of the animals against the epileptic seizure produced by an adequate and predetermined dose of pentylenetetrazol which would be 100% fatal in the absence of the compound.
The test was carried out on batches of 10 mice. Each batch of animals received an intraperitoneal dose of the compound to be studied so that each batch received a higher dose than the preceding batch. Fifteen minutes after administration of the compound to be tested, the animals were each given 125 mg/kg of pentylenetetrazol by intraperitoneal route. The percentage of deaths was noted 3 hours after injection of this latter compound and the result was expressed as a percentage of protection.

[2] = tested on: γ-aminobutyric α-ketoglutaric transaminase (GABA T); assay: Inhibition of GABA T in vitro (coupled spectrophotometric test with GABASE); type: biochemical, Pseudomonas fluorescens; details: comparison of Ki with sodium di-n-propylacetate (0.8 m mol/ml)
Procedure: This test was undertaken "in vitro" in the absorption cell of a double-beam U.V. spectrophotometer.
The activity of GABA T was measured by following the reduction rate (v) of NADP^+ which corresponds to the evolution of the optical density at 340 mμ on the spectrophotometer.
Determination of the activity rate of GABA T by the principle hereabove described can be effected with either limiting concentrations or a saturating concentration of one of the substrates, in the present case GABA, in each instance, in the presence of a saturating concentration of the second substrate namely α-ketoglutarate.
This effectiveness is represented by the constant Ki or constant of inhibition which determines the affinity of the enzyme (GABA T) for the inhibitor.
This constant is expressed in units of concentration, in the present case, in m mol per ml and can be determined by plotting all the curves corresponding to 1/v = f (I) for a saturating concentration of GABA and for different limiting concentrations of GABA.
The following experimental procedure was used:
In the absorption cell (optical passage: 1 cm, volume: about 1 ml) the following solutions were introduced.
0.5 ml of a 1.5 molar solution of sodium sulphate
0.05 ml of a molar buffer solution of pH = 7.9
0.05 ml of a 0.1 molar solution of mercapto-ethanol
0.05 ml of a 20 mg/ml solution of NADP^+
0.125 ml of a solution of GABA
0.03 ml of a 40 mg/ml solution of GABASE (namely a bacterial enzyme isolated from Pseudomonas fluorescens containing a mixture of γ-aminobutyric α-ketoglutaric transaminase and succinosemialdehyde dehydrogenase).
0.125 ml of a solution of the compound to be studied.
If the compound of the invention was in the form of a water-insoluble acid, its sodium salt was used after adjustment to a pH of about 7.9 by adding a titrated solution of sodium hydroxide.
Different measurements of optical density were effected by varying the concentration of GABA and the concentration of the compound under study. Control assays were also effected by replacing the solution of the compound to be studied by 0.125 ml of water.
The content of the absorption cell was allowed to incubate for 10 minutes at 30° C. and then the enzymatic reaction was started by adding 0.1 ml of a 0.02 molar solution of α-ketoglutarate in the absorption cell. The final volume was 1.03 ml. The reaction was then followed by spectrophotometric recording of the reduction rate of the NADP^+ at 340 mμ and at 30° C. The optical density was automatically registered every 30 seconds.

in vivo = details: ip, mouse, intraperitoneal route
[3] = tested on: pentylenetetrazol-induced seizure; assay: Anticonvulsant activity: pentylenetetrazol-induced seizure; type: in vivo; details: mice; for % of the animals still protected one hour after administration: 195 mg/kg of Compound B, 210 mg/kg of Compound C
[4] = Solubility of the isolated acid; type: physicochemical; details: free acid
From the text: In this manner, 9.6 g of 3-n-propyl-hexanoic acid were obtained in the form of a colourless, slightly viscous liquid, insoluble in water and soluble in the organic solvents.

[5] = tested on: anoxic seizure induced by gallamine triiodoethylate; assay: Antianoxic activity: anoxic seizure induced by gallamine triiodoethylate; type: in vivo, mouse; details: mice; for antianoxic activity compared with sodium di-n-propylacetate: at the doses studied in Table II
Procedure: The injection of a sufficient dose of a synthetic curariform substance such as gallamine triiodoethylate provokes in the mouse paralysis of the diaphragm. The animal then dies through asphyxia.
An intraperitoneal dose of the compound to be studied was administered to batches of 20 mice five minutes before the administration of 16 mg/kg of gallamine triiodoethylate by intraperitoneal route. The dose of the compound to be tested was calculated so that each batch received a higher dose than the preceding batch.
The period of time of survival was registered by controlling cardiac arrest by means of an electrocardiogram.
Under these conditions, an antianoxic effect produces an increase in the period of survival of the animal.

[6] = mice, 195 mg/kg of Compound B, 210 mg/kg of Compound C
[7] = i.p. 5 min before 16 mg/kg gallamine triiodoethylate i.p., dose mg/kg: A 360, D 250, E 150, F 210, G 355

Structure (SMILES) | % of protection ([1]; mice) [%] | activity as GABA T inhibitor compared with sodium di-n-propylacetate [2] | LD50 (in vivo) [mg/kg] | antianoxic activity compared with sodium di-n-propylacetate [5] | % of increase in the period of survival in comparison with the controls [5, 7] [%] | also measured
CCCC(CCC)CCC(=O)O [Compound B, 4-n-Propyl-heptanoic acid] | 85 | slightly less active | 350 | – | – | duration of anticonvulsant action compared with sodium di-n-propylacetate ([1]; mice): longer period of time; % protection against the pentylenetetrazol-induced seizure [1, 6]: about 100%; % of the animals still protected one hour after administration [3]: 40%
CCCC(CCC)CCCC(=O)O [Compound C, 5-n-Propyl-octanoic acid] | 85 | – | 350 | – | – | % of the mice protected against the pentylenetetrazol-induced seizure ([1]; 125 mg/kg by intraperitoneal route): 65%; duration of anticonvulsant action compared with sodium di-n-propylacetate ([1]; mice): longer period of time; % protection against the pentylenetetrazol-induced seizure [1, 6]: about 100%; % of the animals still protected one hour after administration [3]: 70%
CCCC(CCC)CC(=O)O [Compound A, 3-n-Propyl-hexanoic acid] | 100 | more active | 500 | slightly more active | 60 | solubility in the organic solvents ([4]; organic solvents): soluble; solubility in water ([4]; water): insoluble; anticonvulsant activity compared with sodium di-n-propylacetate ([1]; mice): more active; % protection against the pentylenetetrazol-induced seizure ([1]; mice, 105 mg/kg by intraperitoneal route): 85%; MTD (in vivo; read-out: LDO, maximum tolerated dose (M.T.D.), highest dose which provokes no deaths): > 400 mg/kg
CC(C)CC(=O)O [Compound D, 3-methyl-butanoic acid] | – | – | – | appreciably more active | 73 | –
CCC(CC)CC(=O)O [Compound E, 3-ethyl-pentanoic acid] | – | – | – | appreciably more active | 59 | –
CCCCC(CCCC)CC(=O)O [Compound F, 3-n-Butyl-heptanoic acid] | 95 | slightly less active | 300 | slightly more active | 29 | anticonvulsant activity compared with sodium di-n-propylacetate ([1]; mice): more active
CCCC(=CC(=O)O)CCC [Compound G, 3-n-Propyl-2-hexenoic acid] | 75 | more active | – | slightly more active | 50 | –
CCCC(CCC)C(=O)[O-].[Na+] [sodium di-n-propylacetate, reference compound] | – | – | – | – | – | % of increase in the period of survival in comparison with the controls ([5]; 330 mg/kg, same conditions (i.p. 5 min before 16 mg/kg gallamine triiodoethylate i.p.)): 40%; % of animals protected against the pentylenetetrazol-induced seizure ([1]; mice, 250 mg/kg, same conditions): 100%; % protection of the animals one hour after administration ([3]; 250 mg/kg): 20%
